Measured values taken from patent US7612208B2, “Crystalline form of the salt of 4-(3-chloro-4-(cyclopropylaminocarbonyl)aminophenoxy)-7-methoxy-6-quinolinecarboxamide or the solvate of the salt and a process for preparing the same” (Eisai R&D Management Co., Ltd., priority 2003, dated 2009).

How the values were obtained:
[1] = Evaluation of solid stability (storage 2 weeks; total impurity by HPLC, water content, powder X-ray diffraction); format: physicochemical; conditions: for changes in water content and appearance, crystal transition: all storage conditions
Description: 2. Storage Conditions for the Solid Stability Test (Period: 2 Weeks) a-2. −20° C. (well closed) b-2. 25° C., light irradiation (1000 1×; shading with aluminum foil, well closed) c-2. 25° C., light irradiation (1000 1×; well closed) […]
e-2. 60° C. (well closed except the following case: slightly open in the case of a crystalline form of the acetic acid solvate of the mesylate (Form I))
3. Method for Measuring the Impurity Amount by HPLC
After storage, the sample solution was prepared by adding a mixed solvent of water and methanol (3:1) to each crystal at 0.1 mg/mL as final concentration.
Tests were conducted by the HPLC method for these sample solutions under the measurement conditions described below, and the eluted peak areas were measured to determine the total impurity amount by the relative area method (impurities of 0.05% or more were counted).
(Formula for Calculating Total Impurity Amount)
• Individual impurity amount (%)=(the peak area for the individual impurity)×100/{(the peak area for carboxamide)+(sum of the peak areas for impurities)} • Total impurity amount (%)=sum of individual impurity amounts (HPLC Measurement Conditions) • Column: Mightysil RP-18 GP (Kanto Kagaku; inner diameter 4.6 mm, column length 150 mm, particle size 3 μm) • Column temperature: constant temperature in vicinity of 40° C. • Flow rate: 1.0 mL/min • Mobile phase:
Solution B: CH3CN:H2O:HClO4=900:100:1 (v/v/v) • Gradient conditions […]
• Injection amount: 10 μL • Detection: ultraviolet absorbance photometer (wavelength: 252 nm) • Temperature of auto sampler: constant temperature in vicinity of 10° C. 4. Powder X-ray Diffraction […]
Measurement of Water Content

[2] = Evaluation of hygroscopicity (storage 1 week; water content, powder X-ray diffraction); format: physicochemical; conditions: for change in appearance and crystal transition / change of water content / hygroscopicity: 25° C., relative humidity 75% or 93%; for crystal form: powder X-ray diffraction
Description: The hygroscopicity and solid stability of a crystalline form of the mesylate of the carboxamide (Form A) (obtained in Example 5), a crystalline form of the mesylate of the carboxamide (Form C) (obtained in Example 7), a crystalline form of the acetic acid solvate of the mesylate of the carboxamide (Form I) (obtained in Example 10) and a crystalline form of the esylate of the carboxamide (Form β) (obtained in Example 12) were measured under the following conditions.
1. Storage Conditions for the Hygroscopicity Test (Period: 1 Week)
a-1. 25° C., relative humidity 75%
b-1. 25° C., relative humidity 93%
Analysis was carried out according to “X-Ray Powder Diffraction Method” described in Japanese Pharmacopoeia 14th Edition, General Tests (B-614 to 619) under the following measurement conditions. • Apparatus: RINT-2000 (manufacture by Rigaku Denki K. K.) • X-ray: CuKα ray • Monochrometer: curved crystal monochrometer • Goniometer: vertical goniometer • Counter: scintillation counter • Applied voltage: 40 kV • Charging current: 200 mA • Scan speed: 5°/min • Scan axis: 2θ/θ • Scan range; 2θ+5° to 40° • Divergent slit: 0.5° • Scattering slit: 0.5° • Receiving slit: 0.3 mm 5. Measurement of Water Content
Measurement was carried out according to the Water Determination as described in Japanese Pharmacopoeia 14th Edition, General Tests (B-318 to 331) using 6 to 10 mg of each crystal.

[3] = Test for measuring dissolution rate (rotating disk method); format: physicochemical; conditions: 2nd fluid pH 6.8, 37° C., 50 rpm
Description: The dissolution rates of the following crystals were measured under the conditions described below by the rotating disk method (see, J. H. Woods et al., J. Pharm. Soc., 54, 1068 (1955)): a crystalline form of the free carboxamide (obtained in Preparation Example 1), a crystalline form of the hydrochloride of the carboxamide (obtained in Example 1), a crystalline form of the hydrobromide of the carboxamide (obtained in Example 2), a crystalline form of the methanesulfonate (hereunder, referred to as “mesylate”) of the carboxamide (Form A) (obtained in Example 5), a crystalline form of the mesylate of the carboxamide (Form C) (obtained in Example 7) and a crystalline form of the ethanesulfonate (hereunder, referred to as “esylate”) (Form β) (obtained in Example 12). The dissolution rates were calculated based on a range in which linearity was maintained in the relation between concentration and time at the initial stage of dissolution.
(Rotating Disk Method Conditions)
• Solvent: “2nd fluid” (pH 6.8, 500 mL) as described in Japanese Pharmacopoeia 14th Edition, General Tests (disintegration test) • Temperature: 37° C. • Disk rotation speed: 50 rpm • Area of powder contacting with solvent on disk: 1 cm^2 • Sampling amount: approx. 1 mL (HPLC Conditions) • Column: Cadenza CD-18 (Imtakt Corporation; inner diameter 4.6 mm, Column length 100 mm, particle size 3 μm) • Column temperature: 40° C. • Flow rate: 1.0 mL/min • Mobile phase:
Concentration of solution B: 20% • Injection amount: 100 μL • Detection: ultraviolet absorbance photometer (wavelength: 252 nm) • Temperature of auto sampler: 25° C. [Results]

[4] = Study of pharmacokinetics in beagle dogs; format: in vivo; conditions: mean ± standard error
Description: A crystalline form of the free from of the carboxamide (obtained in Preparation Example 1), a crystalline form of the hydrobromide of the carboxamide (obtained in Example 2) and a crystalline form of the mesylate of the carboxamide (Form A) (obtained in Example 5) were grounded in a mortar, encapsulated in a gelatin capsule, and then administered orally to beagle dogs (n=3). After administration, 10 mL of water was further administered orally. The dose was set such that it was equivalent to 3 mg/kg as a free form, and the beagle dogs were fasted from the day before administration, and fed again 8 hours after the administration.
To calculate bioavailability (BA), a test was conducted using a single intravenous administration. More specifically, a crystalline form of the free from of the carboxamide was dissolved in a solution containing 10% dimethyl sulfoxide, 50% polyethylene glycol 400 and 40% 0.1 M aqueous solution of hydrochloric acid and administered intravenously through cephalic vein of the foreleg.
The plasma concentration of the carboxamide was measured by HPLC-UV method after sampling blood from cephalic vein of the foreleg. Based on the concentration, pharmacokinetic parameters were calculated for each individual by the moment method. Further, based on the calculated parameters, the mean value and standard error thereof were calculated.

[5] = a-2: −20° C. (well closed), 2 weeks
[6] = b-2: 25° C., light irradiation 1000 lx, shading with aluminum foil, well closed, 2 weeks
[7] = c-2: 25° C., light irradiation 1000 lx, well closed, 2 weeks
[8] = d-2: 40° C., relative humidity 75%, 2 weeks
[9] = e-2: 60° C., 2 weeks (well closed; slightly open for Form I)
[10] = solid stability test, initial, HPLC relative area
[11] = a-1: 25° C., relative humidity 75%, 1 week
[12] = b-1: 25° C., relative humidity 93%, 1 week
[13] = beagle dogs n=3, oral, gelatin capsule, 3 mg/kg as free form, fasted

Structure (SMILES) | total impurity [1, 5] | water content [1, 5] | total impurity [1, 6] | water content [1, 6] | total impurity [1, 7] | water content [1, 7] | total impurity [1, 8] | water content [1, 8] | total impurity [1, 9] | water content [1, 9] | changes in water content and appearance, crystal transition ([1]; solid stability test, 2 weeks) | water content ([1]; solid stability test, initial) | total impurity [1, 10] | change in appearance and crystal transition ([2]; 1 week) | change of water content ([2]; 1 week) | hygroscopicity ([2]; 1 week) | water content [2, 11] | water content [2, 12] | water content ([2]; hygroscopicity test, initial) | dissolution rate [3] | also measured
CCS(=O)(=O)O.COc1cc2nccc(Oc3ccc(NC(=O)NC4CC4)c(Cl)c3)c2cc1C(N)=O [esylate (Form β), Ethanesulfonate of 4-(3-chloro-4-(cyclopropylaminocarbonyl)aminophenoxy)-7-methoxy-6-quinolinecarboxamide] | 0.48% | 2.0% | 0.46% | 2.5% | 0.49% | 2.1% | 0.48% | 2.0% | 0.51% | 2.2% | neither remarkable changes in water content and appearance nor crystal transition was observed | 1.7% | 0.55% | Neither remarkable change in appearance nor crystal transition was observed | did not change remarkably | not observed | 1.7% | 1.4% | 1.7% | 18.5 μg/min/cm^2 | crystal form [1, 5]: β; crystal form [1, 6]: β; crystal form [1, 7]: β; crystal form [1, 8]: β; crystal form [1, 9]: β; crystal form ([1]; solid stability test, initial, powder X-ray diffraction): β; crystal form [2, 11]: β; crystal form [2, 12]: β; crystal form ([2]; hygroscopicity test, initial): β
CC(=O)O.COc1cc2nccc(Oc3ccc(NC(=O)NC4CC4)c(Cl)c3)c2cc1C(N)=O.CS(=O)(=O)O [Acetic Acid Solvate of the Methanesulfonate of 4-(3-chloro-4-(cyclopropylaminocarbonyl)aminophenoxy)-7-methoxy-6-quinolinecarboxamide] | 0.67% | 3.1% | 0.66% | 3.1% | 0.87% | 2.9% | 0.61% | 0.9% | 0.84% | 0.3% |  | 2.9% | 0.62% | transition to a crystalline form of the mesylate (Form C) | a decrease in water content was observed |  | 0.6% | 0.8% | 2.9% |  | crystal transition ([1]; 40° C. and relative humidity of 75%, 2 weeks): transition to a crystalline form of the mesylate (Form C); crystal transition ([1]; 60° C. in a slightly opened container, 2 weeks): transition to a crystalline form of the mesylate (Form B); crystal transition, changes in total impurity amount, water content and appearance ([1]; stored in a well closed container, 2 weeks): neither crystal transition nor remarkable changes in total impurity amount, water content and appearance were observed
Br.COc1cc2nccc(Oc3ccc(NC(=O)NC4CC4)c(Cl)c3)c2cc1C(N)=O [hydrobromide, Hydrobromide of 4-(3-chloro-4-(cyclopropylaminocarbonyl)aminophenoxy)-7-methoxy-6-quinolinecarboxamide] |  |  |  |  |  |  |  |  |  |  |  |  |  |  |  |  |  |  |  | 8.7 μg/min/cm^2 | BA ([4]; beagle dogs n=3, oral 3 mg/kg as free form vs single intravenous administration of free form): 73.5 ± 2.3%; AUC0-24hr [4, 13]: 4.8 ± 0.2 µg·h/mL; Maximum plasma concentration (Cmax) [4, 13]: 0.4804 ± 0.0314 µg/mL; plasma concentration after 24 hours (C24hr) [4, 13]: 0.1005 ± 0.0817 µg/mL; time to reach maximum plasma concentration (Tmax) [4, 13]: 2.67 ± 0.7 h
COc1cc2nccc(Oc3ccc(NC(=O)NC4CC4)c(Cl)c3)c2cc1C(N)=O.Cl [hydrochloride, Hydrochloride of 4-(3-chloro-4-(cyclopropylaminocarbonyl)aminophenoxy)-7-methoxy-6-quinolinecarboxamide] |  |  |  |  |  |  |  |  |  |  |  |  |  |  |  |  |  |  |  | 4.7 μg/min/cm^2 | 
COc1cc2nccc(Oc3ccc(NC(=O)NC4CC4)c(Cl)c3)c2cc1C(N)=O.CS(=O)(=O)O [mesylate (Form C), Methanesulfonate of 4-(3-chloro-4-(cyclopropylaminocarbonyl)aminophenoxy)-7-methoxy-6-quinolinecarboxamide] | 2.10% | 0.7% | 2.09% | 0.8% | 2.22% | 0.7% | 2.06% | 0.6% | 2.18% | 0.5% | neither remarkable changes in water content and appearance nor crystal transition was observed | 0.7% | 2.11% | Neither remarkable change in appearance nor crystal transition was observed | did not change remarkably | not observed | 0.6% | 0.7% | 0.7% | 15.5 μg/min/cm^2 | 
